The subject of one series is 5α-reductase. The series is described as follows: Fatty acid esters on 5α-reductase activity, conversion of testosterone to 5α-dihydrotestosterone in normal human dermal fibroblast cultures (Example 4). The series is classed as cell-based. On the set-up: key to group by 5α-reductase inhibitory activity: group A with the highest inhibitory activity; group B with an intermediate inhibitory activity. The note with it: for inhibition of the 5α-reductase activity: Example 4, p<0.05; for 5α-DHT formed per culture well, mean / 5α-DHT formed per culture well, single well: after 24 of incubation, DMSO 0.1% (v/v); for 5α-DHT formed per culture well, single well: single replicate; for group by 5α-reductase inhibitory activity: tested at 1, 10 and 100 μg/ml. The procedure: The fibroblast culture medium (FCM) consisted of MEM/M199 (3:1, v/v) supplemented with penicillin (50 IU/ml), streptomycin (50 μg/ml), sodium bicarbonate (0.2%, w/v) and FCS (10%, v/v).
The assay system consisted of normal human dermal fibroblasts cultured as a monolayer. The fibroblasts were isolated from a residue from abdominal plastic surgery performed on a person (subject BIOPREDIC No. I0013). The cells were used at the fifth passage; they were cultured until the monolayers were confluent in FCM medium at 37° C. in a humid atmosphere containing 5% CO2.
The fibroblast incubation medium (FIM) consisted of FCM supplemented with tritiated testosterone (1.6×10^−7 M, that is 6.32 μCi/ml) and nonradiolabeled testosterone (3.84×10^−6 M)
The test products and finasteride were taken up in DMSO before being diluted in the incubation medium. […]
The fibroblast cultures were preincubated in the presence of the test products or of the reference product for 2 hours before adding the substrate, testosterone. For this step, the test products and the reference product were prepared in the FCM medium.
After preincubation, the fibroblast cultures were incubated in the presence of the test products or of the reference product prepared in the FIM medium for 22 hours at 37° C. in a humid atmosphere containing 5% CO2. Control cultures were incubated in the FIM medium in the absence of test products and of reference product. […]
Each experimental condition was tested in triplicate.
After the incubation period, the cells were subjected to the action of ultrasound in the FIM medium. The cellular lysates thus obtained were extracted with dichloromethane. After evaporation, the dry residues were taken up in methanol and were deposited on 60F254 silica plates (MERCK, reference 5554).
The migration solvent was a mixture of dichloromethane and ether (7:3, v/v) At the end of the migration, the silica plates were read using a BERTHOLD radioactivity scanner.
The metabolizing of testosterone to 5α-dihydro-testosterone under the various experimental conditions was calculated: the results (areas of the 5α-dihydrotestosterone peaks counted by the BERTHOLD scanner) were expressed in pmol of 5α-dihydro-testosterone formed per culture well. They were also expressed as a percentage of the 5α-reductase activity present in the “DMSO control” group.
The groups of data (control group and treated groups) were treated by a one-way analysis of variance (ANOVA 1, p<0.05), followed by a DUNNETT's test (p<0.05). The effect of the test products and of the reference product was compared with the “DMSO control” group. The effects of the test products were compared to each other by a two-way analysis of variance (ANOVA 2, p<0.05, factor 1=concentration and factor 2=treatment).
The same materials and methods are used as in example 3 above.
It was proposed to evaluate the effect of fatty acid esters on the 5α-reductase activity. An in vitro model of normal human dermal fibroblast cultures was selected. The products tested were chosen from the group of fatty acid esters varying in the length and the functionality of the fatty chain, and the nature of the alkoxy group. These esters are the following: methyl oleate, methyl linoleate, methyl stearate, methyl laurate, methyl undecylenate, butyl oleate, oleyl oleate and methyl ricinoleate.

The test system of series [1] is normal human dermal fibroblasts. The experiment in a line: Morphological examination of the fibroblasts (Example 4). The series is classed as cell-based. To be noted: at 10 and 100 μg/ml.

The results in this text go back to patent publication US8318186B2, “Use of at least a fatty ester for preparing a composition designed to inhibit 5-α-reductase activity, in pharmacology, in particular dermatology, in cosmetics and as food additive” (Laboratoires Expanscience, priority 2000, dated 2012).

Molecules are shown by their SMILES. Several values for one entry are separate records, joined by “and”; a condition that tells them apart may be missing. Equal values may be shown once. Marks after values point to notes of the source that are not given here.

Turning to `CCCCCCCC/C=C\CCCCCCCCOC(=O)CCCCCCC/C=C\CCCCCCCC` [Oleyl oleate, oleyl oleate], in the series with 5α-reductase (1 μg/ml), the “5α-reductase activity as percentage of the “DMSO 0.1% (v/v)” group” value is on record as 72 percentage of the “DMSO 0.1% (v/v)” group; the “inhibition of the 5α-reductase activity” value was 28%; the “5α-DHT formed per culture well, mean” value was 8.17* +/− pmol of 5α-DHT formed/culture well; the “5α-DHT formed per culture well, single well” value is 9.00 pmol of 5α-DHT formed/culture well and 7.32 pmol of 5α-DHT formed/culture well and 8.20 pmol of 5α-DHT formed/culture well. Further, in the series with 5α-reductase (10 μg/ml), the “5α-reductase activity as percentage of the “DMSO 0.1% (v/v)” group” value was 55 percentage of the “DMSO 0.1% (v/v)” group; the “inhibition of the 5α-reductase activity” value is listed as 45%; the “5α-DHT formed per culture well, mean” value is reported as 6.25* +/− pmol of 5α-DHT formed/culture well; the “5α-DHT formed per culture well, single well” value is 6.12 pmol of 5α-DHT formed/culture well and 6.44 pmol of 5α-DHT formed/culture well and 6.20 pmol of 5α-DHT formed/culture well. In the series on 5α-reductase (100 μg/ml), the “5α-reductase activity as percentage of the “DMSO 0.1% (v/v)” group” value is 65 percentage of the “DMSO 0.1% (v/v)” group; the “inhibition of the 5α-reductase activity” value stood at 35%; the “5α-DHT formed per culture well, mean” value was 7.45* +/− pmol of 5α-DHT formed/culture well; the “5α-DHT formed per culture well, single well” value was 6.28 pmol of 5α-DHT formed/culture well and 8.60 pmol of 5α-DHT formed/culture well and 7.48 pmol of 5α-DHT formed/culture well. The “group by 5α-reductase inhibitory activity” value in the series with 5α-reductase is given as “A”. The “state of the fibroblasts by morphological examination of the cells” value in series [1] was “cellular suffering”.
Regarding `C=CCCCCCCCCC(=O)OC` [Methyl undecylenate, methyl undecylenate], in the series on 5α-reductase (1 μg/ml), the “5α-reductase activity as percentage of the “DMSO 0.1% (v/v)” group” value is recorded as 60 percentage of the “DMSO 0.1% (v/v)” group; the “inhibition of the 5α-reductase activity” value is recorded as 40%; the “5α-DHT formed per culture well, mean” value is 6.89* +/− pmol of 5α-DHT formed/culture well; the “5α-DHT formed per culture well, single well” value is 6.56 pmol of 5α-DHT formed/culture well and 7.44 pmol of 5α-DHT formed/culture well and 6.68 pmol of 5α-DHT formed/culture well. In the series with 5α-reductase (10 μg/ml), the “5α-reductase activity as percentage of the “DMSO 0.1% (v/v)” group” value was 68 percentage of the “DMSO 0.1% (v/v)” group; the “inhibition of the 5α-reductase activity” value was found to be 32%; the “5α-DHT formed per culture well, mean” value was 7.71* +/− pmol of 5α-DHT formed/culture well; the “5α-DHT formed per culture well, single well” value is 7.68 pmol of 5α-DHT formed/culture well and 7.84 pmol of 5α-DHT formed/culture well and 7.60 pmol of 5α-DHT formed/culture well. In addition, in the series on 5α-reductase (100 μg/ml), the “5α-reductase activity as percentage of the “DMSO 0.1% (v/v)” group” value is given as 74 percentage of the “DMSO 0.1% (v/v)” group; the “inhibition of the 5α-reductase activity” value was determined as 26%; the “5α-DHT formed per culture well, mean” value is 8.48* +/− pmol of 5α-DHT formed/culture well; the “5α-DHT formed per culture well, single well” value was 8.68 pmol of 5α-DHT formed/culture well and 7.76 pmol of 5α-DHT formed/culture well and 9.00 pmol of 5α-DHT formed/culture well. Further, in the series on 5α-reductase, the “group by 5α-reductase inhibitory activity” value is listed as “B”.
